The source of these data is patent US8809001B2, “High throughput assays for inhibitors and activators of PAQR receptors” (University of Florida Research Foundation, Inc., priority 2007, dated 2014).

Each structure is given as a SMILES string.

This assay has as its system AdipoR2. The experiment in a line: FET3-lacZ (pFET3-397) reporter repression in yeast expressing AdipoR2. The format is cell-based, human. The following applies: concentrations as high as 10 μM. The source says:
IZH1-4 were cloned into pRS316-GAL1 via gap repair as previously described (Lyons et al., 2004). The triple hemaglutinin epitope (3×HA) tagged construct of the IZH2 gene was generated by replacing the ZRC1 promoter and open reading frame in the YCpZRC1-HA plasmid (MacDiarmid et al., 2002) with those of IZH2. This was accomplished by gap repair of Age I-digested YCpZRC1-HA to generate pIZH2-3×HA. This construct has the IZH2 gene driven by its native promoter and retains the ZRC1 terminator sequence. The native IZH2 promoter was then exchanged with the GAL1 promoter using gap repair of pIZH2-3×HA plasmids cut with EcoN I. AdipoR1 and AdipoR2 were amplified from cDNAs obtained from OpenBiosystems (Accession #: BC010743 and BC051858, respectively). PCR products were cloned into NcoI/BamHI digested pYES260 vector (Melcher, 2000) by gap repair allowing for GAL1-driven expression. Plasmids containing GAL1-driven the TAP (Tandem Affinity Purification) tagged NRG1 and NRG2 constructs were purchased from OpenBiosystems.
Most experiments were performed in a defined EDTA-containing medium known as low iron medium (LIM) (Eide et al., 1992). Iron-deficiency and repletion were generated by adding either 1 μM or 1 mM of FeCl3, respectively, to LIM. 2% galactose was used to fully induce GAL1-driven gene overexpression. Total sugar concentration was maintained at 2% by the addition of raffinose in those experiments in which the % galactose was modulated to decrease expression levels. Cells were allowed to grow to mid-log phase in LIM and β-galactosidase assays on permeabilized yeast were performed as previously described (Lyons et al., 2000). […]
Assays and growth conditions. […] Cells were allowed to grow to mid-log phase at which time the activity of the FET3 gene was monitored using a FET3-lacZ promoter-reporter construct. lacZ activities are presented as a percentage of activity seen in untreated cells expressing the appropriate empty expression vector control. […]

Consider `CC(=O)[C@H]1CC[C@H]2[C@@H]3CCC4=CC(=O)CC[C@]4(C)[C@H]3CC[C@]12C` [Progesterone, progesterone], for which the “response of AdipoR2 to progesterone” value is “do not respond”.
